Assays:
[1] = test system: human histiocytic lymphoma cell line (U937); assay: U937 cell proliferation assay (methyl-3H thymidine incorporation); format: cell-based; conditions: for % of Control methyl-^3H Thymidine Incorporation / activity at 6 µM: test compound 6 μM, 72 hours in culture, 3 hours pulse, control DMSO 0.08%, n=6; for activity at 6 µM: Homo sapiens, U-937, U937 cells
Experimental: The compounds of examples 1 to 10 were tested the following cell proliferation assay, to determine their respective capacities to inhibit proliferation.
A human histiocytic lymphoma cell line (U937) was seeded into 30 mm^2 tissue culture wells, in the appropriate culture medium supplemented with 10% fetal calf serum at a density of 250 cells/mm^2. Six hours later the test compounds were added in the same culture medium to the cells to give a final concentration of 6 μM. Control wells contained cells supplemented with the same culture medium containing the equivalent amount of drug vehicle, which in this case was DMSO at a final concentration of 0.08%. After 72 hours in culture the cells were pulsed for 3 hours with methyl-^3H Thymidine (20 μCi/ml) and then harvested onto filter mats and DNA associated radioactivity counted. Results are expressed as percentage of control methyl-^3H Thydimine incorporation (n=6±1 stdv).

Structure (SMILES)	activity at 6 µM [1]	further results
O=CN(O)CC(Cc1ccccc1)C(=O)N[C@@H](Cc1ccccc1)C(=O)OC1CCCC1 (single isomer, unassigned) [Example 1, diastereomer A, 2S-[2-benzyl-3-(formyl-hydroxy-amino)propionylamino]-3-phenyl-propionic acid cyclopentyl ester]		% of Control methyl-^3H Thymidine Incorporation ([1]; U937 cells, 6 µM): 0%
O=CN(O)CC(Cc1ccccc1)C(=O)N[C@@H](Cc1ccccc1)C(=O)OC1CCCC1 (single isomer, unassigned) [Example 1, diastereomer B, 2S-[2-benzyl-3-(formyl-hydroxy-amino)propionylamino]-3-phenyl-propionic acid cyclopentyl ester]		% of Control methyl-^3H Thymidine Incorporation ([1]; U937 cells, 6 µM): 73%
CC(C)C[C@@H](C(=O)N[C@@H](Cc1ccccc1)C(=O)OC1CCCC1)C(C)N(O)C=O (single isomer, unassigned) [Example 2, diastereomer A]	21%	
CC(C)C[C@@H](C(=O)N[C@@H](Cc1ccccc1)C(=O)OC1CCCC1)C(C)N(O)C=O (single isomer, unassigned) [Example 2, diastereomer B]		% of Control methyl-^3H Thymidine Incorporation ([1]; U937 cells, 6 µM): 17%
O=c1[nH]cc(F)c(=O)[nH]1 [5-fluorouracil, reference compound]		activity in the U937 assay, % of that observed with the vehicle alone ([1]; U937 cells, 6 μM, comparison compound): 50%
CCCC[C@H](CN(O)C=O)C(=O)N[C@H](C(=O)OC1CCCC1)C(C)(C)C [Example 3, 2S-{2R-[(Formyl-hydroxy-amino)-methyl]-hexanoylamino}-3,3-dimethyl Butyric Acid Cyclopentyl Ester]	80%	
CCCC[C@H](CN(O)C=O)C(=O)N[C@@H](Cc1ccccc1)C(=O)OC1CCCC1 [Example 4, S-{2R-[(Formyl-hydroxy-amino)-methyl]-hexanoylamino}-3-phenyl-propionic Acid Cyclopentyl Ester]	0%	
CCCC[C@H](CN(O)C=O)C(=O)N[C@H](C(=O)OC)C(C)(C)C [Example 5, 2S-{2R-[(Formyl-hydroxy-amino)-methyl]-hexanoylamino}-3,3-dimethyl Butyric Acid Methyl Ester]	86%	melting point: 63.5 to 64.5 °C
CCCC[C@H](CN(O)C=O)C(=O)N[C@H](C(=O)OC1CCCC1)C(C)C [Example 6, 2S-{2R-[(Formyl-hydroxy-amino)-methyl]-hexanoylamino}-3-methyl Butyric Acid Cyclo-Pentyl Ester]		% of Control methyl-^3H Thymidine Incorporation ([1]; U937 cells): 0%
CCCC[C@H](CN(O)C=O)C(=O)N[C@@H](Cc1ccccc1)C(=O)OC [Example 7]	0%	
CCCC[C@H](CN(O)C=O)C(=O)N[C@@H](Cc1ccccc1)C(=O)OCC [Example 8, 2S-{2R-[(Formyl-hydroxy-amino)-methyl]-hexanoylamino)-3-phenyl-propionic Acid Ethyl Ester]	0%	
CCCC[C@H](CN(O)C=O)C(=O)N[C@H](C(=O)OC(C)C)C(C)(C)C [Example 9, 2S-{2R-[(Formyl-hydroxy-amino)-methyl]-hexanoylamino}-3,3-dimethyl Butyric Acid Iso-Propyl Ester]	81%	
CCCC[C@H](CN(O)C=O)C(=O)N[C@H](C(=O)OCC)c1ccccc1 [Example 10, 2S-{2R-[(Formyl-hydroxy-amino)-methyl]-hexanoylamino}-2-phenyl Acetic Acid Ethyl Ester]	7%	melting point: 134 to 136 °C
CCCC[C@H](CN(O)C=O)C(=O)N[C@H](C(=O)OC(C)C)c1ccccc1 [Example 11, S-{2R-[(Formyl-hydroxy-amino)-methyl]-hexanoylamino}-2-phenyl Acetic Acid Iso-Propyl Ester]	36%	melting point: 142 to 145 °C
CCCC[C@H](CN(O)C=O)C(=O)N[C@H](C(=O)OCC)C(C)(C)C [Example 12, 2S-{2R-[(Formyl-hydroxy-amino)-methyl]-hexanoylamino}-3,3-dimethyl Butyric Acid Ethyl Ester]	77%	melting point: 85 to 87 °C
CCCC[C@H](CN(O)C=O)C(=O)N[C@H](C(=O)OC1CCCC1)c1ccccc1 [Example 13, S-{2R-[(Formyl-hydroxy-amino)-methyl]-hexanoylamino}-2-phenyl Acetic Acid Cyclo-Pentyl Ester]		melting point: 119 to 120 °C
CCCC[C@H](CN(O)C=O)C(=O)N[C@H](C(=O)OC1CCC1)C(C)(C)C [Example 14, 2S-{2R-[(Formyl-hydroxy-amino)-methyl]-hexanoylamino}-3,3-dimethyl Butyric Acid Cyclobutyl Ester]	74%	

Structure (SMILES)	activity at 6 µM [1]	further results
CCCC[C@H](CN(O)C=O)C(=O)N[C@H](C(=O)OC1CCCCC1)C(C)(C)C [Example 15, 2S-{2R-[(Formyl-hydroxy-amino)-methyl]-hexanoylamino}-3,3-dimethyl Butyric Acid Cyclohexyl Ester]	75%	
CCCC[C@H](CN(O)C=O)C(=O)N[C@H](C(=O)OCCOC)C(C)(C)C [Example 16, 2S-{2R-[(Formyl-hydroxy-amino)-methyl]-hexanoylamino}-3,3-dimethyl Butyric Acid 2-methoxy-ethyl Ester]	89%	
CCCC[C@H](CN(O)C=O)C(=O)N[C@H](C(=O)OCC1CCCC1)C(C)(C)C [Example 18, 2S-{2R-[(Formyl-hydroxy-amino)-methyl]-hexanoylamino}-3,3-dimethyl Butyric Acid Cyclopentylmethyl Ester]	60%	
CCCC[C@H](CN(O)C=O)C(=O)N[C@@H](Cc1ccccc1)C(=O)OC(C)C [Example 19, 2S-{2R-[(Formyl-hydroxy-amino)methyl]-hexanoylamino}-3-phenyl-propionic Acid Iso-Propyl Ester]	0%	
CCCC[C@H](CN(O)C=O)C(=O)N[C@H](C(=O)OC)c1ccccc1 [Example 20, S-{2R-[(Formyl-hydroxy-amino)-methyl]-hexanoylamino}-2-phenyl Acetic Acid Methyl Ester]	53%	
CCCC[C@H](CN(O)C=O)C(=O)N[C@H](C(=O)OC(C)(C)C)c1ccccc1 [Example 21, S-{2R-[(Formyl-hydroxy-amino)-methyl]-hexanoylamino}-2-phenyl Acetic Acid Tert-Butyl Ester]	90%	
CCCC[C@H](CN(O)C=O)C(=O)N[C@@H](Cc1ccccc1)C(=O)OC(C)(C)C [Example 22, 2S-{2R-[(Formyl-hydroxy-amino)-methyl]-hexanoylamino}-3-phenyl-propionic Acid Tert-Butyl Ester]	53%	melting point: 95 to 98 °C
CCC[C@@H]([C@@H](CC(C)C)C(=O)N[C@@H](COC(C)(C)C)C(=O)OC1CCCC1)N(O)C=O [Example 23, 3-tert-Butoxy-2S-[3S-(formyl-hydroxy-amino)-2R-isobutyl-hexanoylamino]-propionic Acid Cyclopentyl Ester]	5%	
CCC[C@@H]([C@@H](Cc1ccccc1)C(=O)N[C@@H](COC(C)(C)C)C(=O)OC1CCCC1)N(O)C=O [Example 24, 2S-[2R-Benzyl-3S-(formyl-hydroxy-amino)-hexanoylamino]-3-tert-butoxypropionic Acid Cyclopentyl Ester]	0%	
CCC[C@@H]([C@@H](CC(C)C)C(=O)N[C@H](C(=O)OCC)c1ccccc1)N(O)C=O [Example 25, S-[3S-(Formyl-hydroxy-amino)-2R-isobutyl-hexanoylamino]-phenyl-acetic Acid Ethyl Ester]	3%	
CCC[C@@H]([C@@H](CC(C)C)C(=O)N[C@H](C(=O)OCCOC)c1ccccc1)N(O)C=O [Example 26, S-[3S-(Formyl-hydroxy-amino)-2R-isobutyl-hexanoylamino]-phenyl-acetic Acid Methoxyethyl Ester]	10%	
CCC[C@@H]([C@@H](Cc1ccccc1)C(=O)N[C@@H](Cc1ccccc1)C(=O)OC1CCCC1)N(O)C=O [Example 27, 2S-[2R-Benzyl-3S-(formyl-hydroxy-amino)hexanoylamino]-3-phenyl-propionic Acid Cyclopentyl Ester]	0%	
CCC[C@@H]([C@@H](Cc1ccccc1)C(=O)N[C@H](C(=O)OC1CCCC1)c1ccccc1)N(O)C=O [Example 28, S-[2R-Benzyl-3S-(formyl-hydroxy-amino)hexanoylamino]-phenyl-acetic Acid Cyclopentyl Ester]	0%	
CCC[C@@H]([C@@H](Cc1ccccc1)C(=O)N[C@H](C(=O)OCCOC)c1ccccc1)N(O)C=O [Example 29, S-[2R-Benzyl-3S-(formyl-hydroxy-amino)hexanoylamino]-phenyl-acetic Acid Methoxyethyl Ester]	0%	
CCC[C@@H]([C@@H](CC(C)C)C(=O)N[C@H](C(=O)OCC1CCCC1)c1ccccc1)N(O)C=O [Example 32, S-[3S-(Formyl-hydroxy-amino)-2R-isobutyl-hexanoylamino]-phenyl-acetic Acid Cyclopentylmethyl Ester]	8%	
CCC[C@@H]([C@@H](CC(C)C)C(=O)N[C@H](C(=O)OC1CCCC1)c1ccccc1)N(O)C=O [Example 33, S-[3S-(Formyl-hydroxy-amino)-2R-isobutyl-hexanoylamino]-phenyl-acetic Acid Cyclopentyl Ester]	0%	

From patent US20030149084A1, “Cytostatic agents” (priority 1998, published 2003)
